Test results published in patent US8604024B2, “Compounds for the reduction of beta-amyloid production” (Bristol-Myers Squibb Company, priority 2011, dated 2013).
Read-outs that look alike come from different tables or passages of the source.

Test system: Aβ1-42 production in H4 cells stably transfected with APP751 containing the Swedish mutation
Assay: Cellular assay for inhibition of Aβ1-42 production (H4 APP751 SWE clone 8.20)
Type: cell-based
Conditions: H4 APP751 SWE clone 8.20 cells, 19 h incubation, read-out: Aβ42 cellular IC50
Method: Cellular Assays for Inhibition of Aβ1-40 and Aβ1-42 Production
H4 cells stably transfected with APP751 containing the Swedish mutation (H4 APP751 SWE clone 8.20, developed at BMS) were maintained in log phase through twice weekly passage at a 1:20 split. […] Following incubation for 19 h in 5% CO2 at 37° C., plates were briefly centrifuged (1000 rpm, 5 min). A 10 μl aliquot from each well was transferred to a second assay plate (Costar 3709) for Aβ40 measurements. Antibody cocktails were freshly prepared by dilution into 40 mM Tris-HCl (pH 7.4) with 0.2% BSA and added to assay plates. For Aβ42 measurements, antibodies specific for the Aβ42 neoepitope (565, developed at BMS; conjugated to the Wallac reagent (Perkin Elmer)) and the N-terminal sequence of Aβ peptide (26D6, developed at SIBIA; conjugated to APC (Perkin Elmer)) were mixed and 20 μl of the mixture was added to each well of the incubated cell plate yielding a final concentration of 0.8 ng/well 565 and 75 ng/well 26D6. For the Aβ40 measurements, antibodies specific for the Aβ40 neoepitope (TSD, developed at BMS; conjugated to the Wallac reagent (Perkin Elmer)) and 26D6 as described above were mixed and 20 μl of the mixture was added to the 10 μl aliquots which had been removed previously from the cell plate yielding a final concentration of 1.6 ng/well TSD and 17.5 ng/well 26D6. Assay plates containing antibodies were sealed with aluminum foil and incubated overnight at 4° C. Signal was determined using a Viewlux counter (Perkin Elmer) and IC50 values determined using curve fitting in CurveMaster (Excel Fit based).

Compound | IC50 (19 h) | IC50
NC1=N[C@@H]2c3cc(-c4cncnc4)ccc3CCC[C@@H]2CS1 [Example 1a, (4aS,11bS)-10-Pyrimidin-5-yl-4,4a,5,6,7,11b-hexahydro-3-thia-1-aza-dibenzo[a,c]cyclohepten-2-ylamine] | 1900 nM | 
NC1=N[C@H]2c3cc(-c4cncnc4)ccc3CCC[C@H]2CS1 [Example 1b, (4aR,11bR)-10-Pyrimidin-5-yl-4,4a,5,6,7,11b-hexahydro-3-thia-1-aza-dibenzo[a,c]cyclohepten-2-ylamine] | 28000 nM | 
C[C@]12N=C(N)SC[C@H]1CCCc1ccc(NC(=O)c3ccc(Cl)cn3)cc12 [Example 3a, 5-Chloro-pyridine-2-carboxylic acid ((4aS,11bS)-2-amino-11b-methyl-4,4a,5,6,7,11b-hexahydro-3-thia-1-aza-dibenzo[a,c]cyclohepten-10-yl)-amide] | 8.8 nM | 
C[C@@]12N=C(N)SC[C@@H]1CCCc1ccc(NC(=O)c3ccc(Cl)cn3)cc12 [Example 3b, 5-Chloro-pyridine-2-carboxylic acid ((4aR,11bR)-2-amino-11b-methyl-4,4a,5,6,7,11b-hexahydro-3-thia-1-aza-dibenzo[a,c]cyclohepten-10-yl)-amide] | 6700 nM | 
C[C@@]12N=C(N)SC[C@@H]1CCc1ccc(NC(=O)c3ccc(Cl)cn3)cc12 [Example 7a, N-((4aR,10bR)-2-Amino-10b-methyl-4a,5,6,10b-tetrahydro-4H-naphtho[1,2-d][1,3]thiazin-9-yl)-5-chloropicolinamide] | 3500 nM | 
C[C@]12N=C(N)SC[C@H]1CCc1ccc(NC(=O)c3ccc(Cl)cn3)cc12 [Example 7b, N-((4aS,10bS)-2-Amino-10b-methyl-4a,5,6,10b-tetrahydro-4H-naphtho[1,2-d][1,3]thiazin-9-yl)-5-chloropicolinamide] | 1200 nM | 
CC#Cc1cncc(-c2ccc3c(c2)[C@]2(C)N=C(N)SC[C@@H]2CCO3)c1 [Example 22a, (4aR,11bR)-11b-Methyl-10-(5-(prop-1-yn-1-yl)pyridin-3-yl)-4a,5,6,11b-tetrahydro-4H-benzo[2,3]oxepino[4,5-d][1,3]thiazin-2-amine] | 8200 nM | 
CC#Cc1cncc(-c2ccc3c(c2)[C@@]2(C)N=C(N)SC[C@H]2CCO3)c1 [Example 22b, (4aS,11bS)-11b-Methyl-10-(5-(prop-1-yn-1-yl)pyridin-3-yl)-4a,5,6,11b-tetrahydro-4H-benzo[2,3]oxepino[4,5-d][1,3]thiazin-2-amine] | 1400 nM | 
Cc1ncc(-c2ccc3c(c2)[C@]2(C)N=C(N)SC[C@@H]2CCO3)s1 [Example 26a, (4aR,11bR)-11b-Methyl-10-(2-methylthiazol-5-yl)-4a,5,6,11b-tetrahydro-4H-benzo[2,3]oxepino[4,5-d][1,3]thiazin-2-amine] | 4500 nM | 
Cc1ncc(-c2ccc3c(c2)[C@@]2(C)N=C(N)SC[C@H]2CCO3)s1 [Example 26b, (4aS,11bS)-11b-Methyl-10-(2-methylthiazol-5-yl)-4a,5,6,11b-tetrahydro-4H-benzo[2,3]oxepino[4,5-d][1,3]thiazin-2-amine] | 3200 nM | 
C[C@]12N=C(N)SC[C@H]1CCOc1ccc(NC(=O)c3ccc(Cl)cn3)cc12 [Example 33a, N-((4aS,11bS)-2-amino-11b-methyl-4a,5,6,11b-tetrahydro-4H-benzo[2,3]oxepino[4,5-d][1,3]thiazin-10-yl)-5-chloropicolinamide] | 35 nM | 
C[C@@]12N=C(N)SC[C@@H]1CCOc1ccc(NC(=O)c3ccc(Cl)cn3)cc12 [Example 33b, N-((4aR,11bR)-2-amino-11b-methyl-4a,5,6,11b-tetrahydro-4H-benzo[2,3]oxepino[4,5-d][1,3]thiazin-10-yl)-5-chloropicolinamide] | 7800 nM | 
C[C@]12N=C(N)SC[C@H]1CCOc1ccc(NC(=O)c3ncc(Cl)cc3Cl)cc12 [Example 34a, N-((4aS,11bS)-2-Amino-11b-methyl-4a,5,6,11b-tetrahydro-4H-benzo[2,3]oxepino[4,5-d][1,3]thiazin-10-yl)-3,5-dichloropicolinamide] | 6.9 nM | 
C[C@@]12N=C(N)SC[C@@H]1CCOc1ccc(NC(=O)c3ncc(Cl)cc3Cl)cc12 [Example 34b, N-((4aR,11bR)-2-Amino-11b-methyl-4a,5,6,11b-tetrahydro-4H-benzo[2,3]oxepino[4,5-d][1,3]thiazin-10-yl)-3,5-dichloropicolinamide] | 790 nM | 
C[C@]12N=C(N)SC[C@H]1CCOc1ccc(NC(=O)c3ccc(C#N)cn3)cc12 [Example 35b, N-((4aS,11bS)-2-amino-11b-methyl-4a,5,6,11b-tetrahydro-4H-benzo[2,3]oxepino[4,5-d][1,3]thiazin-10-yl)-5-cyanopicolinamide] |  | 6.2 nM
C[C@]12N=C(N)SC[C@H]1CCOc1ccc(NC(=O)c3ccc(F)cn3)cc12 [Example 36a, N-((4aS,11bS)-2-Amino-11b-methyl-4a,5,6,11b-tetrahydro-4H-benzo[2,3]oxepino[4,5-d][1,3]thiazin-10-yl)-5-fluoropicolinamide] | 17 nM | 
C[C@@]12N=C(N)SC[C@@H]1CCOc1ccc(NC(=O)c3ccc(F)cn3)cc12 [Example 36b, N-((4aR,11bR)-2-Amino-11b-methyl-4a,5,6,11b-tetrahydro-4H-benzo[2,3]oxepino[4,5-d][1,3]thiazin-10-yl)-5-fluoropicolinamide] | 10000 nM | 
C[C@@]12N=C(N)SC[C@@H]1CCCc1ccc(NC(=O)c3ccc(F)cn3)cc12 [Example 43a, N-((4aR,11bR)-2-Amino-11b-methyl-4,4a,5,6,7,11b-hexahydrobenzo[6,7]cyclohepta[1,2-d][1,3]thiazin-10-yl)-5-fluoropicolinamide] | 2500 nM | 
C[C@]12N=C(N)SC[C@H]1CCCc1ccc(NC(=O)c3ccc(F)cn3)cc12 [Example 43b, N-((4aS,11bS)-2-Amino-11b-methyl-4,4a,5,6,7,11b-hexahydrobenzo[6,7]cyclohepta[1,2-d][1,3]thiazin-10-yl)-5-fluoropicolinamide] | 120 nM | 
C[C@@]12N=C(N)SC[C@@H]1CCCc1ccc(NC(=O)c3ccc(C#N)cn3)cc12 [Example 44a, N-((4aR,11bR)-2-Amino-11b-methyl-4,4a,5,6,7,11b-hexahydrobenzo[6,7]cyclohepta[1,2-d][1,3]thiazin-10-yl)-5-cyanopicolinamide] | 6800 nM | 
C[C@]12N=C(N)SC[C@H]1CCCc1ccc(NC(=O)c3ccc(C#N)cn3)cc12 [Example 44b, N-((4aS,11bS)-2-Amino-11b-methyl-4,4a,5,6,7,11b-hexahydrobenzo[6,7]cyclohepta[1,2-d][1,3]thiazin-10-yl)-5-cyanopicolinamide] | 21 nM | 
C[C@]12N=C(N)SC[C@H]1CCCc1ccc(NC(=O)c3ncc(Cl)cc3Cl)cc12 [Example 45a, N-((4aS,11bS)-2-Amino-11b-methyl-4,4a,5,6,7,11b-hexahydrobenzo[6,7]cyclohepta[1,2-d][1,3]thiazin-10-yl)-3,5-dichloropicolinamide] | 7.2 nM | 
C[C@@]12N=C(N)SC[C@@H]1CCCc1ccc(NC(=O)c3ncc(Cl)cc3Cl)cc12 [Example 45b, N-((4aR,11bR)-2-Amino-11b-methyl-4,4a,5,6,7,11b-hexahydrobenzo[6,7]cyclohepta[1,2-d][1,3]thiazin-10-yl)-3,5-dichloropicolinamide] | 920 nM | 
C[C@]12N=C(N)SC[C@H]1CCCc1ccc(NC(=O)c3ccc(OC(F)F)cn3)cc12 [Example 46a, N-((4aS,11bS)-2-Amino-11b-methyl-4,4a,5,6,7,11b-hexahydrobenzo[6,7]cyclohepta[1,2-d][1,3]thiazin-10-yl)-5-(difluoromethoxy)picolinamide] | 27 nM | 
C[C@@]12N=C(N)SC[C@@H]1CCCc1ccc(NC(=O)c3ccc(OC(F)F)cn3)cc12 [Example 46b, N-((4aR,11bR)-2-Amino-11b-methyl-4,4a,5,6,7,11b-hexahydrobenzo[6,7]cyclohepta[1,2-d][1,3]thiazin-10-yl)-5-(difluoromethoxy)picolinamide] | 3500 nM | 
